Results reported in the supplement of paper PMC10307832.

Tests used:
Assay in all cases: relative viability (nuclei count vs DMSO), 5 days (fraction); higher = more cells survive
AZD5582 + Tozasertib = compound: C[C@@H](C(=O)N[C@@H](C1CCCCC1)C(=O)N2CCC[C@H]2C(=O)N[C@@H]3[C@@H](CC4=CC=CC=C34)OCC#CC#CCO[C@@H]5CC6=CC=CC=C6[C@@H]5NC(=O)[C@@H]7CCCN7C(=O)[C@H](C8CCCCC8)NC(=O)[C@H](C)NC)NC [AZD5582] + Cc1cc(Nc2cc(N3CCN(C)CC3)nc(Sc3ccc(NC(=O)C4CC4)cc3)n2)n[nH]1 [Tozasertib] (partner 0.1 µM)
Summary of the method: (§1)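 A single step with final 0.05% Triton X-100, 1% formaldehyde and 1 ug/ml Hoechst fixed the cells and stained nuclei 5 days after treatment. Lung cancer cell lines in 1536-well plates had been treated by pin tool the day after seeding with one drug alone or a fixed anchor-drug dose plus five library-drug doses (not always all listed) in √10 steps, and nuclei were counted on 4× images. Relative viability is the ratio of nuclei in treated wells to nuclei in vehicle wells, taken as the median of duplicate plates.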

[1] = compound: Cn1nnc2c(C(N)=O)ncn2c1=O [Temozolomide] + CC(C)C[C@H](NC(=O)[C@H](Cc1ccccc1)NC(=O)c1cnccn1)B(O)O [Bortezomib] (partner 0.002 µM)
Summary of the method: as §1

Temozolomide + Foretinib = compound: Cn1nnc2c(C(N)=O)ncn2c1=O [Temozolomide] + COc1cc2c(Oc3ccc(NC(=O)C4(C(=O)Nc5ccc(F)cc5)CC4)cc3F)ccnc2cc1OCCCN1CCOCC1 [Foretinib] (partner 0.25 µM)
Summary of the method: as §1

[2] = compound: Cn1nnc2c(C(N)=O)ncn2c1=O [Temozolomide] + C[C@]1(O)C[C@@H](c2nc(-c3ccc4ccc(-c5ccccc5)nc4c3)c3c(N)nccn32)C1 [Linsitinib] (partner 1 µM)
Summary of the method: as §1

Cell Line | relative viability (AZD5582 + Tozasertib; first compound 0.001581 µM) | relative viability (AZD5582 + Tozasertib; first compound 0.005 µM) | relative viability (AZD5582 + Tozasertib; first compound 0.01581 µM) | relative viability (AZD5582 + Tozasertib; first compound 0.05 µM) | relative viability ([1]; first compound 0.2 µM) | relative viability ([1]; first compound 0.6325 µM) | relative viability ([1]; first compound 2 µM) | relative viability ([1]; first compound 6.325 µM) | relative viability ([1]; first compound 20 µM) | relative viability (Temozolomide + Foretinib; first compound 0.2 µM) | relative viability (Temozolomide + Foretinib; first compound 0.6325 µM) | relative viability (Temozolomide + Foretinib; first compound 2 µM) | relative viability (Temozolomide + Foretinib; first compound 6.325 µM) | relative viability (Temozolomide + Foretinib; first compound 20 µM) | relative viability ([2]; first compound 0.2 µM) | relative viability ([2]; first compound 0.6325 µM) | relative viability ([2]; first compound 2 µM) | relative viability ([2]; first compound 6.325 µM) | relative viability ([2]; first compound 20 µM)
NCI-H1437 | 0.373 | 0.385 | 0.399 | 0.358 | 0.453 | 0.42 | 0.648 | 0.409 | 0.452 | 1.27 | 1.25 | 1.27 | 1.26 | 1.31 | 1.15 | 1.02 | 1.11 | 1.01 | 1.14
LCLC-103H | 0.377 | 0.409 | 0.455 | 0.315 | 1.13 | 1.09 | 1.04 | 1.08 | 1.01 | 0.834 | 0.787 | 0.895 | 0.73 | 0.713 | 1.03 | 1.05 | 1.23 | 1.09 | 1.01
NCI-H647 | 0.269 | 0.347 | 0.255 | 0.357 | 1.21 | 0.902 | 0.836 | 0.792 | 0.283 | 1.16 | 1.3 | 1.13 | 0.702 | 0.302 | 1.27 | 1.2 | 1.15 | 0.776 | 0.295
LC-2-ad | 0.363 | 0.493 | 0.418 | 0.4 | 1.17 | 0.984 | 1.02 | 0.945 | 0.945 | 0.838 | 1 | 0.971 | 0.898 | 0.765 | 0.795 | 0.823 | 0.808 | 0.751 | 0.807
NCI-H2087 | 0.23 | 0.218 | 0.319 | 0.289 | 0.973 | 0.918 | 0.738 | 0.681 | 0.948 | 1.23 | 1.16 | 1.19 | 1.23 | 1.04 | 1.09 | 0.862 | 1.03 | 0.826 | 0.949
COR-L23 | 0.187 | 0.246 | 0.257 | 0.241 | 1.15 | 1.12 | 1.08 | 1.06 | 0.963 | 1.12 | 1.06 | 1.01 | 0.961 | 0.911 | 1.01 | 1.08 | 0.863 | 0.994 | 0.819
NCI-H727 | 0.651 | 0.732 | 0.58 | 0.78 | 0.884 | 0.903 | 1.09 | 0.768 | 0.803 | 0.835 | 0.791 | 0.99 | 0.705 | 0.702 | 0.287 | 0.329 | 0.196 | 0.224 | 0.233
HCC-78 | 1.42 | 0.515 | 0.428 | 0.529 |  | 0.524 | 0.537 | 0.515 | 0.567 | 0.487 | 0.547 | 0.616 | 0.551 | 0.552 | 0.387 | 0.618 | 0.668 | 0.67 | 0.529
